Source: patent publication US8642602B2, “Method of inhibiting fibrogenesis and treating fibrotic disease” (University of Georgia Research Foundation, Inc., priority 2009, dated 2014)

What was measured:
collagen I = assay: Further testing: fibrogenic activity measured by production of collagen I; assay type: cell-based; conditions: 1 μM, one dose at start of culturing, 7 days (FIG. 11)
Source text: RNA was also isolated on days 4 and 7.

hepatic stellate cells = assay: Induction of fibrogenic genes in cultured hepatic stellate cells; assay type: cell-based, rat; conditions: freshly isolated quiescent hepatic stellate cells in culture
Source text: EZH2 is therefore a negative regulator of PPARγ transcription in myofibroblasts, but also appears to play a wider regulatory role in promoting MTD and wound-healing. Furthermore, the stimulation of EZH2 expression and subsequent methylation of H3K27 in the downstream exons of the PPARγ gene is identified as a second mechanism through which MeCP2 achieves transcriptional silencing of PPARγ. The combined effect of H3K9 methylation and HP1α binding at the 5′ end of the PPARγ gene with H3K27 methylation and PRC1 recruitment in the downstream exons would be to prevent both transcriptional initiation and elongation which reflects the biological importance of suppressing PPARγ expression for MTD and wound-healing. […]
Total RNA was purified from isolated cells using the Total RNA purification kit (Qiagen, UK) following the manufacturer's instructions and was used to generate first strand cDNA utilising a random hexamer primer [p(dN)6] and MMLV reverse transcriptase. […] After each run, a dissociation curve was performed to ensure that no primer dimers contaminated the quantification and that the product had the expected melting temperature. All PCR reactions were normalized to the internal control and relative level of transcriptional difference calculated using the following equation: [1/(2A)]×100.

[1] = test system: α1 (I) collagen and TIMP-1 transcripts; assay: Acute CCl4 liver injury, liver transcripts by qPCR; assay type: in vivo, C57Bl6 mice; conditions: mice, 15 mg/m^2 IP 2 hours prior to single dose of CCl4, sacrificed 24 h after
Method: FIG. 5—A.) and B.) 5×10^6 rat MFBs were electroporated as outlined “Materials and methods”. 2 μgs control siRNA or siRNA designed to target rat EZH2 was used per transfection. Total RNA was prepared from control or rat EZH2 siRNA transfected cells 48 h after the electroporation. First strand cDNA was synthesised which was then utilised as a template in qPCR using primers for specific amplification of EZH2 (in A.) and PPARγ (in B.). C.) Fully differentiated MFBs were treated with 1 μM 3-deazaneplanocin A or vehicle for 72 h at which time total RNA was prepared from control or drug treated cells. First strand cDNA was synthesised which was then utilised as a template in qPCR using primers for specific amplification of PPARγ. D.) Freshly isolated rat HSC were plated out onto plastic in two separate dishes and one dish treated with 1 μM 3-deazaneplanocin A at 12 h following the HSC isolation. […] Results are expressed as percent control of 3-deazaneplanocin A and olive oil vehicle injected mice (data not included in the graph).
3 deazaneplanocin A was given to two groups of four C57Bl6 mice (15 mg/m^2 which was calculated to be 0.428 μg of drug per g body weight of a mouse) was given IP 2 hours prior to a single dose of CCl4 (CCl4/olive oil in a 1:1 [vol/vol] ratio at 1 μl per g body weight). […]

EZH2 = conditions: Tan J et al, 2007; cited from earlier work

Compound	inhibition of collagen I production at 7 days (collagen I)	induction of fibrogenic gene al (I) collagen (hepatic stellate cells)	induction of fibrogenic gene tissue inhibitor of metalloproteinase-1 (TIMP-1) (hepatic stellate cells)	induction of transcripts for TIMP-1 in injured liver [1]	induction of transcripts for α1 (I) collagen in injured liver [1]	effect on cellular EZH2 (EZH2)
Nc1nc(Cl)cc2c1ncn2C1COC(CO)O1 (stereo not drawn) [Compound 8]	significant inhibition	–	–	–	–	–
Nc1nccc2c1ncn2[C@@H]1C=C(CO)[C@@H](O)[C@H]1O [Compound 3, 3-deazaneplanocin A]	–	suppressed the induction	suppressed the induction	suppressed the induction	suppressed the induction	depletes cells of EZH2
